Data as given in ChEMBL document CHEMBL1135236, “Synthesis of iodinated 3beta-aryltropanes with selective binding to either the dopamine or serotonin transporters” (Bioorg Med Chem Lett, 2002).

Legend:
[1] = target: Sodium-dependent serotonin transporter (Rattus norvegicus, UniProt P31652); assay: Tested for the ability to displace [3H]- paroxetine binding in rat frontal cortex membrane against Serotonin transporter; format: cell membranes
[2] = target: Sodium-dependent serotonin transporter (Rattus norvegicus) (UniProt P31652); assay: Ratio of serotonin transporter potency to that of dopamine transporter potency
Sequence of Sodium-dependent serotonin transporter (Rattus norvegicus) (P31652 whole entry): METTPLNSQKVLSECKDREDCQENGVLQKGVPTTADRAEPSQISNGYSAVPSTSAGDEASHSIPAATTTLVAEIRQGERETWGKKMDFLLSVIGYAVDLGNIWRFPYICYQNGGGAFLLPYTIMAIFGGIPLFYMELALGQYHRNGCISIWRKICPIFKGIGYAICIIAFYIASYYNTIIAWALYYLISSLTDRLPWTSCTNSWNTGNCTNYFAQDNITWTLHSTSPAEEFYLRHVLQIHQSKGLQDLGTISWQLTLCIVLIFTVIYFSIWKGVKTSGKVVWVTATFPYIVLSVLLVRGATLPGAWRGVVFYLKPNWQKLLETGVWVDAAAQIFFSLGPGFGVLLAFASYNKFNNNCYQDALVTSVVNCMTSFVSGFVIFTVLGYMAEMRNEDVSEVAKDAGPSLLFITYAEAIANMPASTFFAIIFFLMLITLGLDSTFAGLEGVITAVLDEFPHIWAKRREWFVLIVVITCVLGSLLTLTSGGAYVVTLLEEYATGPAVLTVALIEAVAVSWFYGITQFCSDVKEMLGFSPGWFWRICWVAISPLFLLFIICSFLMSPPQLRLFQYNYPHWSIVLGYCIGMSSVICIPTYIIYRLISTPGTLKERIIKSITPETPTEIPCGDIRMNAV

[3] = target: Sodium-dependent dopamine transporter (Rattus norvegicus, UniProt P23977); assay: Tested for the ability to displace [125I]- RTI-55 binding in rat striatal membrane against dopamine transporter; format: cell membranes, Striatum
Sequence of Sodium-dependent dopamine transporter (P23977 whole entry): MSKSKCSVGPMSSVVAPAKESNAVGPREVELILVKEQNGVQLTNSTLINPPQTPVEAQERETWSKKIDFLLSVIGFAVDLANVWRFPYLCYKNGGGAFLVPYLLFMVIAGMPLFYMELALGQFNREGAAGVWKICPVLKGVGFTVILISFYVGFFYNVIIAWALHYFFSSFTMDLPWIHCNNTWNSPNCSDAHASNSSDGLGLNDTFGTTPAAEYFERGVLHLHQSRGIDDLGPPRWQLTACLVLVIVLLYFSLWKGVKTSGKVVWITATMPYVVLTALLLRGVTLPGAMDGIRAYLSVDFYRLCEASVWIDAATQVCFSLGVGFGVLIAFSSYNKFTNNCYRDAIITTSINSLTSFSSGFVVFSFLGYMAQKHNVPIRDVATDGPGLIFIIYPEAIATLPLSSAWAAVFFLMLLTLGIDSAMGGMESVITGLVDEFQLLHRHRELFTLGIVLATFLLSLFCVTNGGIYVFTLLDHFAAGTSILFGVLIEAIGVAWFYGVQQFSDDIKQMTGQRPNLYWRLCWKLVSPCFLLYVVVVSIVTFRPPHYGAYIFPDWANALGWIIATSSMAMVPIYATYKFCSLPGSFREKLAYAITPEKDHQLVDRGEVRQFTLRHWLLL

Sequence of Sodium-dependent serotonin transporter (P31652 whole entry): as the sequence (P31652 whole entry) above

Row | Structure (SMILES) | Ki [1] [nM] | Ratio [2] | IC50 [3] [nM]
1 | CCC(=O)C1C2CCC(CC1c1ccc(/C=C(\C)I)cc1)N2 (centres undefined) | 0.57 | 710 | 401
2 | CCC(=O)C1C2CCC(CC1c1ccc(/C=C/I)cc1)N2 (centres undefined) | 0.62 | 83 | 51.3
3 | CCC(=O)C1C2CCC(CC1c1cccc(I)c1)N2 (centres undefined) | 15.7 | 1.3 | 19.8
4 | CCC(=O)C1C(c2ccc(I)c(Cl)c2)CC2CCC1N2C (centres undefined) | 1.14 | 0.067 | 0.077
5 | Cc1ccc(C2CC3CCC(C2C(=O)CC/C=C/I)N3C)cc1 (centres undefined) | 50.8 | 0.26 | 13.3
6 | CCC(=O)C1C(c2ccc(-c3cccn3C)cc2)CC2CCC1N2C/C=C\I (centres undefined) | 13.1 | 86 | 1120
7 | CCC(=O)C1C(c2ccc(I)c(F)c2)CC2CCC1N2C (centres undefined) | 9.07 | 0.041 | 0.38
8 | CCC(=O)C1C2CCC(CC1c1ccc(I)cc1)N2 (centres undefined) | 2.44 | 0.9 | 2.2
9 | CCC(=O)C1C(c2ccc(I)cc2)CC2CCC1N2C (centres undefined) | 1.88 | 0.9 | 1.69
10 | Cc1ccc([C@H]2CC3CCC([C@H]2C(=O)C(C/C=C/I)C/C=C/I)N3C)cc1 (some centres undefined) | > 1100 | – | 47.2
11 | CCC(=O)C1C2CCC(CC1c1ccc(I)c(F)c1)N2 (centres undefined) | 7.26 | 0.15 | 1.08
12 | CCC(=O)C1C(c2ccc(-c3cccn3C)cc2)CC2CCC1N2C/C=C/I (centres undefined) | 2.82 | 270 | 753
13 | CCC(=O)C1C2CCC(CC1c1ccc(I)c(Cl)c1)N2 (centres undefined) | 1.08 | 0.079 | 0.085
14 | CCC(=O)C1C(c2cccc(I)c2)CC2CCC1N2C (centres undefined) | 19.7 | 2.9 | 56.5
15 | CCC(=O)C1C2CCC(CC1c1ccc(/C=C(/C)I)cc1)N2 (centres undefined) | 0.13 | 510 | 66.5
